Data: patent US20250064945A1 (Arvinas Operations, Inc., priority 2021, published 2025)

Target: T1, BRM (Homo sapiens, UniProt P51531)
T1 construct: In-Cell Western Screen of BRM Degradation in SW1573 Cells; endogenous in cells; host or cells: SW1573 cells
Experiment: Western blot / In-Cell Western screen of BRM degradation in SW1573 cells
Type: cell-based
Conditions: overnight (18-20 hours) treatment; for Dmax: read-out: Dmax (%) (% degraded)
Protocol: Western Blot Screen of BRM Degradation in SW1573 Cells
(§1) To assess BRM degradation (Dmax and DC50) cells were seeded at 8000/well in 96-well black/clear-bottom plates in 180 μL DMEM growth media (containing 1% pen-strep, 1% HEPES and 10% FBS) per well. Plates were incubated overnight to allow adhesion. The next morning cells were treated by adding 20 μL of 10× target compound concentration (1% DMSO) to appropriate wells and returned to incubator for overnight (18-20 hours). The final DMSO concentration was 0.1%.
For lysing, adherent cells were washed once with 100 μL of DPBS. Cells were lysed in 40 μL of 1× RIPA+HALT protease inhibitor on ice for 10 minutes and frozen until use at −80° C. Thawed lysates were cleaned by filtration in 1.2 µm filter plates, or alternatively, were spun clean at 2300 g at 4° C. for 30 minutes.
For blotting, for each Western sample 30 μL of lysate was added to 10 μL of 4×LDS sample buffer, then denatured at 95° C. for 5 minutes in the thermal cycler and placed on ice. Samples were loaded on 4-15% Tris/Glycine gels and run for 25 minutes at 250 constant volts in 1×Tris/Glycine buffer with 4 μL of ladder and 12 μL of each sample loaded for each blot. Protein was transferred from gels to NC with BioRad Turbo dry-transfer unit with the Turbo/midi default program. All blots were rinsed with ddH2O and blocked for 1 hour at room temperature in 5% BSA in TBST (0.1%) on rocker. Blots were exposed to primary antibody in 5% BSA in TBST (0.1%) overnight at 4° C. on rocker (1:1000 for BRM (Cell Signaling Tech. cat #11966) and 1:2000 for alpha-tubulin (Cell Signaling Tech. cat #3873), a control protein. Blot was washed with TBST (0.1%) three times for 5 minutes on rocker at room temperature. Secondary antibody was added, and blots were incubated on a room temperature rocker for 1 hour with 1:18,000 anti-rabbit-HRP and/or anti-mouse-HRP in 5% BSA in TBST (0.1%). Blots were washed three times in TBST (0.1%) for 5 minutes at room temperature on the rocker. Signal was developed with Femto Maximum Sensitivity substrate for 4 minutes and blots read on ChemiDoc™.
In-Cell Western Screen of BRM Degradation in SW1573 Cells
as §1, with “DC50),” for “DC50)”, “10×” for “10× target”, “compound” for “compound concentration”
For processing, the plates were removed from incubator, the media was removed, and immediately 200 μL of cold (4° C.) DPBS was added to all wells. DPBS was then removed, and 50 μL of 4% paraformaldehyde (PFA) in DPBS (4° C.) was added to all wells, and the plates were incubated at room temperature for 20 minutes. PFA was then removed, and 200 μL of TBS-T containing 0.5% Triton X-100 was added to all wells, and the plates were incubated at room temperature for 30 minutes. TBS-T containing 0.5% Triton X-100 was then removed, and 50 μL of Li-Cor blocking solution was added, and the plates were incubated at room temperature for a minimum of one hour. The blocking solution was removed, and 50 μL of Li-Cor blocking solution containing primary antibody cocktail was added (1:1000 for BRM (Cell Signaling Tech. cat #11966) and 1:2000 for alpha-tubulin (Sigma cat #T6074), a control protein. Plates were then placed in cold room until the next day.
The next day plates were washed three times with TBS-T, 200 μL per well. Fifty […] of secondary antibody cocktail in LI-COR blocking solution (anti-rabbit_800 nm and anti-mouse_680 nm) was added to all wells (diluted 1:5000). The plates were incubated at room temperature for at least one hour while protected from light. The plates were washed twice with TBS-T, 200 μL per well. […]

T1 sequence (P51531 whole entry): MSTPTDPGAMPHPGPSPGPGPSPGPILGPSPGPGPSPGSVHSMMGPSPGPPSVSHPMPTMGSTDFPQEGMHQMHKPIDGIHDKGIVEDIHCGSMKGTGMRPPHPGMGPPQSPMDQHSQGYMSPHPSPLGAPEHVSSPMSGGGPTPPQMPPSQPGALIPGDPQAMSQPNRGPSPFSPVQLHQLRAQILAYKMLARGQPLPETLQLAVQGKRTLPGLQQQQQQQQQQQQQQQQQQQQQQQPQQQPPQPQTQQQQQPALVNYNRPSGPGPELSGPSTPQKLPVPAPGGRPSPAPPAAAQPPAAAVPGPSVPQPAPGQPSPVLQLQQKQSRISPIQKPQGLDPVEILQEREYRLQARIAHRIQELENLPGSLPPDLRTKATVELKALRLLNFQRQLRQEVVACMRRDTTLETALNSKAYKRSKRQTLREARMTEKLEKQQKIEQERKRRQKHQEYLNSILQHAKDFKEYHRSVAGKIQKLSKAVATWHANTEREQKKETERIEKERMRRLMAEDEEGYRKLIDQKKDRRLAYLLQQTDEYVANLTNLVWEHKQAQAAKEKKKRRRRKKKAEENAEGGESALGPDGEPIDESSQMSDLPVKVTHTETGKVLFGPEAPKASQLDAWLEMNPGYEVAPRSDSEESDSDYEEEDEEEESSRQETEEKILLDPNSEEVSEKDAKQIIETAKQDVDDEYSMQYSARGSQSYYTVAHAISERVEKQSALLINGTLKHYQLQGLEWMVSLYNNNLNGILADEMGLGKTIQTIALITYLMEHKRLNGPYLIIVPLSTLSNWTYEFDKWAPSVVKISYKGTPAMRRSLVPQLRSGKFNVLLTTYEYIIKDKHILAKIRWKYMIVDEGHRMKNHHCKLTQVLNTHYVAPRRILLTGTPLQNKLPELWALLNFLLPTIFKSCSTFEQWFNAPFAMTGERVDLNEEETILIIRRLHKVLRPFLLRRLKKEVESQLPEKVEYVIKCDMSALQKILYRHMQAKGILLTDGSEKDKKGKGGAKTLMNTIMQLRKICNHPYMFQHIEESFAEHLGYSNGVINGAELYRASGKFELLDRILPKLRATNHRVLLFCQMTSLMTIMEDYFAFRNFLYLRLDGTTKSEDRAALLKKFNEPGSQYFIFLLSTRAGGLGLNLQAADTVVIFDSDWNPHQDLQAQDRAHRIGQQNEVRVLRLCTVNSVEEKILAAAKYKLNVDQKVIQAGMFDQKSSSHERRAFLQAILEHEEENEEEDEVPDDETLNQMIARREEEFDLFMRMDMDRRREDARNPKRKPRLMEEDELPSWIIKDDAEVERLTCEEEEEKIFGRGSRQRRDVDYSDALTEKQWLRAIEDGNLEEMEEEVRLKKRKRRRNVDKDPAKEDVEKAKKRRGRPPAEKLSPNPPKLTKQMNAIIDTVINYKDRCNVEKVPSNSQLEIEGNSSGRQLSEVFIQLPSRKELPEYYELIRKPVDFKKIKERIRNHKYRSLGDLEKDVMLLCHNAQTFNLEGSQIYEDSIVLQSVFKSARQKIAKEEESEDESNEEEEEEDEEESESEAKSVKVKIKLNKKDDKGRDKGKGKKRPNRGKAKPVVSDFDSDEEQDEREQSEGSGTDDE

| DC50 [nM] | Dmax [%] | Structure (SMILES) |
| --- | --- | --- |
| 2.5 to 10 | > 75 | CC(C)[C@@H](C(=O)N1C[C@H](O)C[C@H]1C(=O)N[C@@H](C)c1ccc(C#N)cc1)c1cc(OCCN2CCN(CCOc3cc(N4CCN(c5cc(-c6ccccc6O)nnc5N)CC45COC5)ccn3)CC2)no1 [Compound 19, (2S,4R)-1-[(2R)-2-{3-[2-(4-{2-[(4-{8-[3-amino-6-(2-hydroxyphenyl)pyridazin-4-yl]-2-oxa-5,8-diazaspiro[3.5]nonan-5-yl}pyridin-2-yl)oxy]ethyl}piperazin-1-yl)ethoxy]-1,2-oxazol-5-yl}-3-methylbutanoyl]-N-[(1S)-1-(4-cyanophenyl)ethyl]-4-hydroxypyrrolidine-2-carboxamide] |
| 2.5 to 10 | > 75 | Cc1nccn1-c1ccc([C@H](C)NC(=O)[C@@H]2C[C@@H](O)CN2C(=O)[C@@H](c2cc(OCCN3CCN(CCOc4cc(N5CCN(c6cc(-c7ccccc7O)nnc6N)CC56COC6)ccn4)CC3)no2)C(C)C)cc1 [Compound 20, (2S,4R)-1-[(2R)-2-{3-[2-(4-{2-[(4-{8-[3-amino-6-(2-hydroxyphenyl)pyridazin-4-yl]-2-oxa-5,8-diazaspiro[3.5]nonan-5-yl}pyridin-2-yl)oxy]ethyl}piperazin-1-yl)ethoxy]-1,2-oxazol-5-yl}-3-methylbutanoyl]-4-hydroxy-N-[(1S)-1-[4-(2-methyl-1H-imidazol-1-yl)phenyl]ethyl]pyrrolidine-2-carboxamide] |
| ≥ 30 | – | Cc1nccn1-c1ccc([C@H](C)NC(=O)[C@@H]2C[C@@H](O)CN2C(=O)[C@H](c2cc(OCCN3CCN(CCOc4cc(N5CCN(c6cc(-c7ccccc7O)nnc6N)CC56COC6)ccn4)CC3)no2)C(C)C)cc1 [Compound 21, (2S,4R)-1-[(2S)-2-{3-[2-(4-{2-[(4-{8-[3-amino-6-(2-hydroxyphenyl)pyridazin-4-yl]-2-oxa-5,8-diazaspiro[3.5]nonan-5-yl}pyridin-2-yl)oxy]ethyl}piperazin-1-yl)ethoxy]-1,2-oxazol-5-yl}-3-methylbutanoyl]-4-hydroxy-N-[(1S)-1-[4-(2-methyl-1H-imidazol-1-yl)phenyl]ethyl]pyrrolidine-2-carboxamide] |
| < 2.5 | > 75 | Cc1ncsc1-c1ccc([C@H](C)NC(=O)[C@@H]2C[C@@H](O)CN2C(=O)[C@@H](c2cc(N3CCC(CN4CCC5(CC4)CC(N4CCO[C@@H](CN6CCOC7(CCCN(c8cc(-c9ccccc9O)nnc8N)C7)C6)C4)C5)CC3)no2)C(C)C)cc1 (stereo partly drawn) [Compound 22, (2S,4R)-1-[(2R)-2-{3-[4-({2-[(2S)-2-({8-[3-amino-6-(2-hydroxyphenyl)pyridazin-4-yl]-1-oxa-4,8-diazaspiro[5.5]undecan-4-yl}methyl)morpholin-4-yl]-7-azaspiro[3.5]nonan-7-yl}methyl)piperidin-1-yl]-1,2-oxazol-5-yl}-3-methylbutanoyl]-4-hydroxy-N-[(1S)-1-[4-(4-methyl-1,3-thiazol-5-yl)phenyl]ethyl]pyrrolidine-2-carboxamide] |

| Structure (SMILES) | DC50 [nM] | Dmax [%] |
| --- | --- | --- |
| CC(C)[C@@H](C(=O)N1C[C@H](O)C[C@H]1C(=O)N[C@@H](C)c1ccc(C#N)cc1)c1cc(OCCN2CCC(O[C@H]3C[C@@H](Oc4cc(N5CCN(c6cc(-c7ccccc7O)nnc6N)CC56COC6)ccn4)C3)CC2)no1 [Compound 24, (2S,4R)-N-[(1S)-1-(4-cyanophenyl)ethyl]-4-hydroxy-1-[(2R)-3-methyl-2-[3-(2-{4-[(1r,3r)-3-[(4-{8-[3-amino-6-(2-hydroxyphenyl)pyridazin-4-yl]-2-oxa-5,8-diazaspiro[3.5]nonan-5-yl}pyridin-2-yl)oxy]cyclobutoxy]piperidin-1-yl}ethoxy)-1,2-oxazol-5-yl]butanoyl]pyrrolidine-2-carboxamide] | < 2.5 | > 75 |
